Structures can show the parent of a compound that is named as a salt.
How the values were obtained:
H14 cells = test: In vitro assay of uptake of [14C]-alanine; type: cell-based, hamster; conditions: Mesocricetus auratus; 20 μM
Description: Baby hamster kidney cells (BHK) transfected with the cDNA of human IBAT (H14 cells) are seeded at 60,000 cells/well in 96 well Top-Count tissue culture plates for assays run within in 24 hours of seeding, 30,000 cells/well for assays run within 48 hours, and 10,000 cells/well for assays run within 72 hours.
On the day of assay, the cell monolayer is gently washed once with 100 μl assay buffer (Dulbecco's Modified Eagle's medium with 4.5 g/L glucose+0.2% (w/v) fatty acid free bovine serum albumin-(FAF)BSA). To each well 50 μl of a two-fold concentrate of test compound in assay buffer is added along with 50 μl of 6 μM [^14C]-taurocholate in assay buffer (final concentration of 3 μM [^14C]-taurocholate). The cell culture plates are incubated 2 hours at 37° C. prior to gently washing each well twice with 100 μl 4° C. Dulbecco's phosphate-buffered saline (PBS) containing 0.2% (w/v) (FAF)BSA. The wells are then gently washed once with 100 μl 4° C. PBS without (FAF)BSA. To each 200 μl of liquid scintillation counting fluid is added, the plates are heat sealed and shaken for 30 minutes at room temperature prior to measuring the amount of radioactivity in each well on a Packard Top-Count instrument.
In Vitro Assay of Compounds that Inhibit Uptake of [^14C3-Alanine
The alanine uptake assay is performed in an identical fashion to the taurocholate assay, with the exception that labeled alanine is substituted for the labeled taurocholate.

fecal bile acid (FBA) = test: Rat gavage assay (fecal bile acid increase); type: in vivo
Description: Male Wister rats (275-300 g) are administered IBAT inhibitors using an oral gavage procedure. Drug or vehicle (0.2% Tween 80 in water) is administered once a day (9:00-10:0 a.m.) for 4 days at varying dosages in a final volume of 2 mL per kilogram of body weight. Total fecal samples are collected during the final 48 hours of the treatment period and analyzed for bile acid content using an enzymatic assay as described below. Compound efficacy is determined by comparison of the increase in fecal bile acid (FBA) concentration in treated rats to the mean FBA concentration of rats in the vehicle group.
Measurement of Fecal Bile Acid Concentration (FBA)
Total fecal output from individually housed hamsters was collected for 24 or 48 hours, dried under a stream of nitrogen, pulverized and weighed. Approximately 0.1 gram was weighed out and extracted into an organic solvent (butanol/water). Following separation and drying, the residue was dissolved in methanol and the amount of bile acid present was measured enzymatically using the 3α-hydroxysteroid steroid dehydrogenase reaction with bile acids to reduce NAD. (Reference: Mashige, F., et al. (1981) Clin. Chem. 27, 1352).

human IBAT = molecular target: T1, human IBAT (Homo sapiens, UniProt Q12908); test: In vitro assay of IBAT-mediated uptake of [14C]-taurocholate (TC) in H14 cells; type: cell-based; conditions: In Vitro Taurocholate Uptake, Table 10; read-out: Human TC IC50
T1 construct: expressed in transfected cells; host or cells: Baby hamster kidney (BHK) cells, clone H14
T1 sequence (Q12908 1-348): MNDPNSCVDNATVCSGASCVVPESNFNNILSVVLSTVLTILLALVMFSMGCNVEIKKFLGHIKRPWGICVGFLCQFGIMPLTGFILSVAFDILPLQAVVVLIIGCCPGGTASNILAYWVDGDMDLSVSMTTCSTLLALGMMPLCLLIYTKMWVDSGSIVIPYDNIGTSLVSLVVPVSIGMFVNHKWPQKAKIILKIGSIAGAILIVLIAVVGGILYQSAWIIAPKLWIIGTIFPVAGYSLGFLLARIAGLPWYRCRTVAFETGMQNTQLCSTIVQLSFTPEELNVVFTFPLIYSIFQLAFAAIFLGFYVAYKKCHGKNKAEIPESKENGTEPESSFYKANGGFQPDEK
How it was run: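 BHK cells stably expressing human IBAT (H14) were incubated 2 h at 37° C with compound and 3 μM final [14C]-taurocholate in DMEM (4.5 g/L glucose) plus 0.2% fatty acid-free BSA. After cold PBS washes, cell-associated radioactivity was measured by scintillation counting.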

Row | SMILES | inhibition at 20 µM (H14 cells) | Delta (micromoles fecal bile acid per day) (fecal bile acid (FBA); dose 5 mg/kg/day) | Delta (micromoles fecal bile acid per day) (fecal bile acid (FBA); dose .04 mg/kg/day) | Delta (micromoles fecal bile acid per day) (fecal bile acid (FBA); dose .2 mg/kg/day) | IC50 (human IBAT) | Delta (micromoles fecal bile acid per day) (fecal bile acid (FBA); dose 2 mg/kg/day) | Delta (micromoles fecal bile acid per day) (fecal bile acid (FBA); dose .016 mg/kg/day) | Delta (micromoles fecal bile acid per day) (fecal bile acid (FBA); dose .08 mg/kg/day) | Delta (micromoles fecal bile acid per day) (fecal bile acid (FBA); dose .4 mg/kg/day)
1 | CCCC[C@]1(CC)CS(=O)(=O)c2cc(O)ccc2[C@H](c2ccccc2)[C@@H]1O [Example 27, (3α,4α,5α) 3-Butyl-3-ethyl-4,8-dihydroxy-5-phenyl-2,3,4,5-tetrahydrobenzothiepine-1,1-dioxide] | 7% |  |  |  |  |  |  |  | 
2 | CCCCC1(CCCC)CS(=O)(=O)c2ccc(N(C)C)cc2[C@@H](c2ccc(OCCCCC(=O)O)cc2)[C@H]1O [Example 1404, (4R-cis)-5-[4-[3,3-Dibutyl-7-(dimethylamino)-2,3,4,5-tetrahydro-4-hydroxy-1,1-dioxido-1-benzothiepin-5-yl]phenoxy]pentanoic Acid] |  | 93.7 micromoles fecal bile acid per day | 33.5 micromoles fecal bile acid per day | 59.1 micromoles fecal bile acid per day | 10 nM |  |  |  | 
3 | CCCCC1(CCCC)CS(=O)(=O)c2ccc(N(C)C)cc2[C@@H](c2ccc(OCCC[N+]34CCN(CC3)CC4)cc2)[C@H]1O [Example 1406, (4R-cis)-1-[3-[4-[3,3-Dibutyl-7-(dimethylamino)-2,3,4,5-tetrahydro-4-hydroxy-1,1-dioxido-1-benzothiepin-5-yl]phenoxy]propyl]-4-aza-1-azoniabicyclo[2.2.2]octane, Methanesulfonate (Salt)] |  |  |  |  | 4 nM | 47.8 micromoles fecal bile acid per day | −8.5 micromoles fecal bile acid per day | 12.8 micromoles fecal bile acid per day | 31.6 micromoles fecal bile acid per day
4 | CCCCC1(CCCC)CS(=O)(=O)c2ccc(N(C)C)cc2[C@@H](c2ccc(OCCCC[N+](CC)(CC)CC)cc2)[C@H]1O.CS(=O)(=O)[O-] [Example 1410, (4R-cis)-4-[4-[3,3-Dibutyl-7-(dimethylamino)-2,3,4,5-tetrahydro-4-hydroxy-1,1-dioxido-1-benzothiepin-5-yl]phenoxy]-N,N,N-triethyl-1-butanaminium] |  |  |  |  | 2 nM | 26.2 micromoles fecal bile acid per day | 20.4 micromoles fecal bile acid per day | 18.5 micromoles fecal bile acid per day | 36.5 micromoles fecal bile acid per day
5 | CCCCC1(CCCC)CS(=O)(=O)c2ccc(N(C)C)cc2[C@@H](c2ccc(OCCCC[n+]3cccc(O)c3)cc2)[C@H]1O.CS(=O)(=O)[O-] [Example 1411, (4R-cis)-1-[4-[4-[3,3-Dibutyl-7-(dimethylamino)-2,3,4,5-tetrahydro-4-hydroxy-1,1-dioxido-1-benzothiepin-5-yl]phenoxy]butyl]-3-hydroxypyridinium, methanesulfonate (Salt)] |  |  |  |  | 2 nM | 63.4 micromoles fecal bile acid per day | 22.3 micromoles fecal bile acid per day | 33 micromoles fecal bile acid per day | 54.1 micromoles fecal bile acid per day
6 | CCCCC1(CCCC)CS(=O)(=O)c2ccc(N(C)C)cc2[C@@H](c2ccc(OCCCCCN(CC)CC)cc2)[C@H]1O [Example 1414, (4R-cis)-3,3-Dibutyl-5-[4-[[5-(diethylamino)pentyl]oxy]phenyl]-7-(dimethylamino)-2,3,4,5-tetrahydro-1-benzothiepin-4-ol 1,1-dioxide] |  | 45.2 micromoles fecal bile acid per day | 14.3 micromoles fecal bile acid per day | 39.5 micromoles fecal bile acid per day | 15 nM | 41.5 micromoles fecal bile acid per day | 3.8 micromoles fecal bile acid per day | 29 micromoles fecal bile acid per day | 33.7 micromoles fecal bile acid per day
7 | CCCCC1(CCCC)CS(=O)(=O)c2ccc(N(C)C)cc2[C@@H](c2ccc(OCCCCCN(CC(=O)O)CC(=O)O)cc2)[C@H]1O [Example 1415, (4R-cis)-N-(Carboxymethyl)-N-[5-[4-[3,3-dibutyl-7-(dimethylamino)-2,3,4,5-tetrahydro-4-hydroxy-1,1-dioxido-1-benzothiepin-5-yl]phenoxy]pentyl]glycine] |  | 59.9 micromoles fecal bile acid per day | 23.9 micromoles fecal bile acid per day | 48.1 micromoles fecal bile acid per day | 2 nM | 48.9 micromoles fecal bile acid per day | 12.7 micromoles fecal bile acid per day | 27.1 micromoles fecal bile acid per day | 25.7 micromoles fecal bile acid per day
8 | CCCCC1(CCCC)CS(=O)(=O)c2ccc(N(C)C)cc2[C@@H](c2ccc(OCCCCCN(CCN(CC)CC)CCN(CC)CC)cc2)[C@H]1O [Example 1416, (4R-cis)-5-[4-[[5-[bis[2-(Diethylamino)ethyl]amino]pentyl]oxy]phenyl]-3,3-dibutyl-7-(dimethylamino)-2,3,4,5-tetrahydro-1-benzothiepin-4-ol 1,1-dioxide] |  |  |  |  | 14 nM | 46.1 micromoles fecal bile acid per day | −7.8 micromoles fecal bile acid per day | 25 micromoles fecal bile acid per day | 21.9 micromoles fecal bile acid per day
9 | CCCCC1(CCCC)CS(=O)(=O)c2ccc(N(C)C)cc2[C@@H](c2ccc(OCCCCCNCCc3cnc[nH]3)cc2)[C@H]1O [Example 1417, (4R-cis)-3,3-Dibutyl-7-(dimethylamino)-2,3,4,5-tetrahydro-5-[4-[[5-[[2-(1H-imidazol-4-yl)ethyl]amino]pentyl]oxy]phenyl]-1-benzothiepin-4-ol 1,1-dioxide] |  |  |  |  | 2 nM | 51.4 micromoles fecal bile acid per day | 29.3 micromoles fecal bile acid per day | 39.6 micromoles fecal bile acid per day | 42 micromoles fecal bile acid per day
10 | CCCCC1(CCCC)CS(=O)(=O)c2ccc(N(C)C)cc2[C@@H](c2ccc(OCCCCCNCC(=O)O)cc2)[C@H]1O [Example 1423, (4R-cis)-N-[5-[4-[3,3-Dibutyl-7-(dimethylamino)-2,3,4,5-tetrahydro-4-hydroxy-1,1-dioxido-1-benzothiepin-5-yl]phenoxy]pentyl]glycine] |  |  |  |  | 3 nM | 56.5 micromoles fecal bile acid per day | 14.4 micromoles fecal bile acid per day | 35.3 micromoles fecal bile acid per day | 69.3 micromoles fecal bile acid per day
11 | CCCCC1(CCCC)CS(=O)(=O)c2ccc(N(C)C)cc2[C@@H](c2ccc(OCc3ccc(C[n+]4ccccc4)cc3)cc2)[C@H]1O.[Cl-] [Example 1425, (4R-cis)-1-[[4-[[4-[3,3-Dibutyl-7-(dimethylamino)-2,3,4,5-tetrahydro-4-hydroxy-1,1-dioxido-1-benzothiepin-5-yl]phenoxy]methyl]phenyl]methyl]-pyridinium chloride] |  | 91.8 micromoles fecal bile acid per day | 66.4 micromoles fecal bile acid per day | 100. micromoles fecal bile acid per day | 2 nM |  |  |  | 

Reference: patent publication US6784201B2, “Benzothiepines having activity as inhibitors of ileal bile acid transport and taurocholate uptake” (G.D. Searle & Company, priority 1994, dated 2004)
